{"source": "patent US20050037446A1", "about": "“Agents that recognize src when phosphorylated at serine 17” (priority 2001, published 2005)", "key": {"[1]": {"test_system": "Rap1", "conditions": "NIH3T3 cells, pretreatment; cited from earlier work"}, "[2]": {"test_system": "ERK1/2", "assay": "ERK1/2 phosphorylation Western blot, NIH3T3 cells", "type": "cell-based", "conditions": "inhibition of SFKs", "protocol": "To determine the role of SFKs in cAW's antagonism of extracellular signal regulated kinase (ERK) activation, the following methods were used. NIH3T3 cells were incubated in the presence or absence of either H89 or PP2 for 20 minutes, pretreated with Forskolin for five minutes, and then stimulated with 100 ng/ml, epidermal growth factor (EGF, Sigma), or 100 ng/ml platelet-derived growth factor (PDGF, Sigma) for five minutes, as described in EXAMPLE 1. Cell lysates were analyzed by Western blot for phosphorylation of endogenous ERK1/2 or total ERK2. To detect phosphorylation of endogenous ERK1/2, phosphorylation-specific ERK antibodies (PERK) that recognize phosphorylated ERK1 (pERK1) and ERK2 (pERK2), at residues threonine 183 and tyrosine 185 were used (New England Biolabs, Beverly, Mass.)."}, "[3]": {"test_system": "Ras", "assay": "Ras activation affinity assay (GST-Raf1-RBD), Hek293 cells", "type": "cell-based", "protocol": "Endogenous GTP-loaded Ras was determined using a Ras activation affinity assay as follows. Hek293 cells were grown, stimulated, and lysed as described above. Activated Ras was assayed as previously described (Schmitt and Stork, Mol. Cell. Biol. 21:3671-83, 2001). Briefly, equivalent amounts of lysates from stimulated cells were incubated with GST-Rafl-RBD (Ras-binding domain) as specified by the manufacturer (Upstate Biotechnology, Lake Placid, N.Y.). Proteins were eluted with 2×Laemmli buffer and applied to a 12% SDS polyacrylamide gel. Proteins were transferred to a PVDF membrane, blocked at room temperature for 1 hour in 5% milk and probed with either Ras or Flag antibody overnight at 4° C., followed by an HRP-conjugated anti-mouse secondary. Proteins were detected using enhanced chemiluminescence.\nMutation of tyrosine 527 of Src to phenylanaline (Y527F) produces a constitutively active (oncogenic) Src by eliminating the inhibitory phosphorylation at Y527 (Xu et al. Mol. Cell. 3(5): 629-38, 1999; Brown and Cooper, Biochim. Biophys. Acta 1287(2-3): 121-49, 1996). To determine the effect of this mutant on Ras and Rap1 activation, Hek293 cells were transfected with Flag-tagged Rap1 or Flag-tagged Ras, in the presence or absence of pcDNA3, SrcY527F, SrcS17A/Y527F, SrcS17D/Y527F, CBR, or Cb1-ct using the methods described above. […]"}, "[4]": {"test_system": "Cb1/C3G with Src", "assay": "Co-immunoprecipitation of Src, Cb1 and C3G, Hek293 cells", "type": "cell-based", "protocol": "To examine whether a similar mechanism might underlie signaling from GPCRs, the following methods were used. Hek293 cells were transfected with Flag-tagged SrcWT, SrcS17A, or SrcS17D, using the methods disclosed herein. Cells were treated with 10 μM isoproterenol and equivalent amounts of lysates immunoprecipitated with Flag antibody. The presence of endogenous Cb1 within the eluates was examined by Western blotting. The ability of isoproterenol to induce Rap1-recruitment of B-Raf was blocked by both Cb1-ct and CBR.\nCells were treated with isoproterenol or left untreated and equal amounts of lysates immunoprecipitated with Myc antibody and the presence of endogenous C3G within the eluates examined by Westein blot using the methods disclosed herein.\nEquivalent amounts of lysates were immunoprecipitated with Flag antibody and the presence of endogenous C3G within the eluates was examined by Western blots as described herein."}}}
{"molecule": "O=S(=O)(NCCNC/C=C/c1ccc(Br)cc1)c1cccc2cnccc12", "note": "[H89, N-[2(Bromocimamylamino)ethyl]-5-isoquinolinesulfonamide]", "values": [{"measurement": "Effect on Forskolin's activation of endogenous Rap1", "setting": "[1]", "result": "blocked"}]}
{"molecule": "CC(C)(C)n1nc(-c2ccc(Cl)cc2)c2c(N)ncnc21", "note": "[PP2, 4-amino-5-(4-chlorophenyl)-7-(t-butyl)pyazolo[3,4-d]pyrimidine]", "values": [{"measurement": "Effect on EGF's or PDGF's activation of ERKs", "setting": "[2]", "result": "no observable effect"}, {"measurement": "Effect on Forskolin's inhibition of ERKs", "setting": "[2]", "result": "prevented Forskolin's inhibition of ERKs"}]}
{"molecule": "CC(C)NCC(O)c1ccc(O)c(O)c1", "note": "(centres unmarked) [isoproterenol]", "values": [{"measurement": "Activation of endogenous Ras", "setting": "[3]", "result": "activated endogenous Ras"}, {"measurement": "Association between C3G and transfected Cb1", "setting": "[4]", "result": "induced an association"}]}
